Data from the METLIN SMRT retention time set (Domingo-Almenara et al. 2019).

Experiment: gradient 5% acetonitrile 3 min, to 50% in 2 min, to 85% in 15 min, held 3 min, 100 µL/min
Conditions: column: Zorbax Extend-C18 2.1 x 50 mm; eluents: water / acetonitrile, 0.1% formic acid
Outline: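 Values are retention times taken from adduct peaks that software picked and an analyst inspected. The pure standards were run as mixtures of ~100 molecules on HPLC linked to a quadrupole time-of-flight mass spectrometer, in positive and negative ionization mode. A Zorbax Extend-C18 column (2.1 × 50 mm, 1.8 μm) was used at 100 μL/min with water and acetonitrile, each including 0.1% formic acid.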

RP-LC retention time [s]	SMILES
794	COc1ccc(C)cc1NC(=O)Cn1ncc2c(c1=O)N(C1CC1)C(=O)CS2
819	CSc1ccc(-c2nc3ccc(Cl)cn3c2Nc2ccc3c(c2)OCCO3)cc1
656	Cc1cc(N2CCN(C)CC2)n2nc(-c3ccc(C(C)(C)C)cc3)nc2n1
710	CN1CCC(C2CCN(S(=O)(=O)c3ccccc3Cl)C2)CC1 (configuration not stated)
620	Cn1nnnc1SCC(=O)NCCCC(=O)Nc1cccc2cccnc12
999	CC1CCN(S(=O)(=O)c2cc(-c3nnc(C4CCC4)o3)co2)CC1
672	Cn1c(=O)c2c(ncn2CC(=O)N2CCC(C)(c3noc(C4CC4)n3)CC2)n(C)c1=O
1080	CCc1nc(-c2ccc(-c3noc(CNC(=O)Cc4ccc(Cl)cc4)n3)cc2)cs1
619	CC(C)N1CCN(C(=O)C2CCc3sc(C(=O)N4CCCCCC4)cc3C2)CC1 (configuration not stated)
631	CN(C)c1ccc(C(=O)NCCCCCCC(=O)NO)cc1
650	CCc1nc2c(c(=O)n1CC(=O)Nc1ccccc1OC)CN(Cc1ccccc1)CC2
754	CCCCn1cc(S(=O)(=O)NCc2ccccc2F)c2cccnc21
622	Cc1nc2nc(SCC(=O)NCCCN3CCOCC3)nn2c(C)c1Cc1ccccc1
819	O=C(c1ccsc1)N1CCCC1(CO)Cc1ccccc1 (configuration not stated)
822	COc1cccc(C(=O)N2CCCC(c3nnc(-c4ccccc4)o3)C2)c1 (configuration not stated)
727	Cc1ccc2c(NCc3ccc(Cl)cc3)c(-c3nc(C)no3)cnc2n1
635	COC(=O)CNC(=O)N1CCc2cc(-c3ccc(C(=O)N4CCOCC4)cc3)ccc21
815	COc1ccc(-c2csc3c(=O)n(Cc4ccccn4)cnc23)cc1

RP-LC retention time [s]	SMILES
563	CCN1CCN(c2ncnc3sc(C(=O)NCCCOC)c(C)c23)CC1
850	Cc1ccc(CNC(=O)C2(C)CN(S(C)(=O)=O)CC(=O)N2c2ccc(Cl)cc2)cc1 (configuration not stated)
701	COc1ccc(NC(=O)C2CCCN(c3nnc4ccc(Cl)cn34)C2)c(OC)c1 (configuration not stated)
656	Cc1ccc(C)c(NC(=O)Cn2c(N3CCCC3)nc(C)cc2=O)c1
625	O=C(Cn1ccc2ccccc21)NCCn1ncccc1=O
608	Cc1ccc(F)cc1S(=O)(=O)N1CCn2c(nnc2C2CCN(C(C)C)C2)C1 (configuration not stated)
1060	O=C(NC1CCCCCC1)C1CCCN(c2nccnc2Oc2ccccc2)C1 (configuration not stated)
736	COc1ccc(OC)c(-c2cc(C(=O)NCCn3cnc(-c4ccccc4)cc3=O)[nH]n2)c1
942	Cc1cccc(NS(=O)(=O)c2cc3c(s2)CCN(C(=O)C2CCC2)C3)c1C
806	O=C(CCC1CCCN(C(=O)Nc2ccccc2)C1)NCc1cccc(F)c1 (configuration not stated)
608	CCCNC(=O)CCc1c(-c2ccc(F)cc2)nc2ccccn12
1000	Cc1cc(-c2nnc(-c3ccc(F)cc3)o2)c(C)n1CC(=O)N(C)Cc1ccccc1
779	COc1ccc(S(=O)(=O)NCc2ccc3c(c2)CCN3C(C)=O)cc1Cl
687	O=C(CSc1nc2ccccc2s1)NCCn1nc(-c2ccco2)ccc1=O
731	CCc1ccccc1NC(=O)N1CCC2(CC1)NC(=O)c1ccccc1N2C
829	Cc1cc(C(=O)N2c3ccccc3CC2c2nnc(C(C)C)o2)nn1C (configuration not stated)
858	Cc1ccc(NC(=O)NCCc2cn(CC(C)C)c3ncccc23)cc1C
851	COc1cccc(CNc2ncc(C(=O)O)c(C(C)C)n2)c1

SMILES	RP-LC retention time [s]
Cc1cc(C)cc(C(=O)OC2C[C@H]3CC[C@@H](C2)N3C)c1 (some centres not stated)	729
